Tests used:
skin explant cultures = test: ELISA assay for cortisol released from skin explant cultures; assay type: cell-based, human; details: for effect on cortisol production (in words): 24 hours, metyrapone 200 μM; for induction of cortisol levels / cortisol production: after 24 hours, ACTH 0.1 μM, progesterone 1 μM
Experimental: (§1) Cells were cultured to 80% of confluency as described above in Example 1(C). 200 μl of the medium was collected at 0, 6, 12, 24, and 48 hours after the switch to basal medium, and cortisol production was measured using ELISA kit (R & D Systems, Minneapolis, Minn.) following commercial protocol.
(§2) To further confirm that keratinocytes produce glucocorticoids de novo, medium was collected from cultured cells grown in the minimal medium in the absence of any alternative GC source as described in Example 1(C). Cortisol production was measured after 0, 6, 12, 24, and 48 hours using the ELISA assay described in Example 1(E). To confirm the production in tissue, the production of cortisol released from skin in explant cultures was measured. As shown in FIG. 3(B), 11.1 ng/ml of cortisol was released by the skin.
(§3) A further experiment was performed where prior to measurement both the keratinocytes and the skin explant cultures were stimulated with 0.1 μM of ACTH. Cortisol production was measured after 24 hours using the ELISA assay described in Example 1(E). […] The addition of 1 μM of progesterone as a substrate for glucocorticoid synthesis lead to a 2.5 fold induction in cortisol production in both cells and skin (FIG. 7B). The addition of 200 μM metyrapone (Sigma) decreased endogenous levels of cortisol production (FIG. 7B).
(§4) To determine if injury-related molecules affect cortisol synthesis, IL-1 or IGF-1 was added to keratinocytes cultured as described in Example 1(C) or skin explants. IL-1 is a primary injury-response pro-inflammatory signal whereas IGF-1 is known to modulate glucocorticoid metabolism (Rappolee et al. (1988) Science 241:708-12). ACTH was used as a positive control. Cortisol levels were measured 24 hours post-treatment using the ELISA assay described in Example 1(E). […] In contract, IGF-1 inhibited cortisol production in both treated cells and tissue (FIG. 8(A)).

[1] = test system: acute wounds in human skin specimens; test: Epithelialization in acute wounding model of human skin (histology); details: topical; air-liquid interface for 6 days; metyrapone 200 μM
From the text: Human skin specimens were obtained from discarded tissue in reduction mammoplasty following approved Hospital for Special Surgery protocol (#25121). Preparation of tissue with acute wounds was done as previously described (Tomic-Canic et al. (2007) Wound Repair Regen. 15(1):71-9); Stojadinovic et al. (2005) Am. J. Pathol. 167(1):59-69). The adipose tissue was removed, and circular templates of skin were generated using a 6 mm biopsy punch. A 3 mm biopsy punch was used to create an acute wound. The skin specimens were maintained at the air-liquid interface with DMEM (BioWhittaker, Walkersville, Md.) with antibiotics-antimycotics, and fetal bovine serum (FBS) (Gemini Bio-Products, Woodland, Calif.) for 0, 4, 48, and 96 hours in the presence or absence of 1 μM dexamethasone (Sigma, St. Louis, Mo.). Acute wounds were fixed in 4% paraformaldehyde (Sigma) at room temperature overnight, dehydrated with ethanol, cleared in chloroform, and embedded in paraffin.
The effect of glucocorticoids on epithelialization was tested using the acute wounding model described in Example 1(A). The wounded skin was maintained at the air-liquid interface for 6 days. Wounds were maintained in the presence or absence of clobetasol propionate (routinely used by dermatologists in the treatment of inflammatory skin disorders). Healing rates was determined by histology. […]

glucocorticoid receptor = test: Immunohistochemistry of phosphorylated (hormone-activated) GR in acute wound sections; design: species or system human; details: treated acute wound samples
From the text: Human skin specimens were obtained from discarded tissue in reduction mammoplasty following approved Hospital for Special Surgery protocol (#25121). […] The adipose tissue was removed, and circular templates of skin were generated using a 6 mm biopsy punch. A 3 mm biopsy punch was used to create an acute wound. […] Acute wounds were fixed in 4% paraformaldehyde (Sigma) at room temperature overnight, dehydrated with ethanol, cleared in chloroform, and embedded in paraffin.
Six μm tissue sections were serially cut on a microtome (HM 315, Carl Zeiss, New York, N.Y.) and mounted on slides. Sections were dewaxed in xylene, re-hydrated and washed with 1× phosphate buffered saline (PBS). For antigen retrieval, paraffin sections were heated in a 95° C. water bath in Target Retrieval Solution (DAKO Corporation, Carpinteria, Calif.). Histological slides were treated with 3% H2O2/30% MeOH for 30 minutes, rinsed with water, and blocked with normal rabbit serum for 30 minutes (Vectastatin Kit Elite ABC, Vectorlabs, Burlingame, Calif.). […] Sections were analyzed using a Carl Zeiss microscope. […]

c-myc = test: Northern Blot and Western Blot of c-myc in keratinocytes and tissue; assay type: cell-based, human
Experimental: Keratinocytes were grown to 80% confluency, switched to the basal media for 24 hours, and incubated with 1 mM dexamethasone (Sigma) for 24 and 48 hours. Cells were harvested by trypsinization and cytoplasmic and nuclear fractions were obtained using Nuclear Extract Kit (Active Motif, Carlsbad, Calif.) following commercial protocol. 15 μg of each fraction was separated on a 10% SDS-PAGE gel. The proteins were then transferred to a nitrocellulose membrane (Protran®, Bioscience, Dassel, Germany) using the semi-dry transfer system (BioRad, Hercules, Calif.). Ponceau S was used to check the efficiency of the transfer. […] The membrane was washed 3 times for 5 minutes in TTBS and then incubated at 4° C. overnight with GR antibody (1:500) (Affinity Bioreagents) followed with horseradish […] (HRP) conjugated to anti-rabbit secondary antibody (1:1000) (Santa Cruz Biotech, Santa Cruz, Calif.). Immune complexes were visualized using Super Signal West Pico Chemiluminescent substrate (Pierce, Rockford, Ill.). Immunoblot was exposed on x-ray film (HyBlot CL, Denville, N.J.) according to manufacturer's instruction.
It was also found by Northern Blot analysis using acute wound tissue that c-myc was induced at 96 hours post-wounding (FIG. 11(B)).
Using Western Blot analysis, it was shown that protein levels of c-myc were induced by exogenous glucocorticoid and blocked by metyrapone (FIG. 11(C)).

[2] = test system: primary human keratinocytes; test: ELISA assay for cortisol in medium of cultured keratinocytes; assay type: cell-based; details: for effect on cortisol production (in words) / induction of cortisol levels / cortisol production: keratinocytes; for effect on cortisol production (in words): 24 hours, metyrapone 200 μM; for induction of cortisol levels / cortisol production: after 24 hours, ACTH 0.1 μM, progesterone 1 μM
Experimental: Normal human epidermal keratinocytes were initiated using 3T3 feeder layers as previously described (Randolph and Simon (1993) J. Biol. Chem. 268(13):9198-9205) and frozen in liquid nitrogen until use. Once thawed, the keratinocytes were grown without feeder cells in defined serum-free keratinocyte medium supplemented with epidermal growth factor and bovine pituitary extract (keratinocyte-SFM, GIBCO, Carlsbad, Calif.). Cells were expanded through two 1:4 passages before they were grown to 80% confluency. Cells were washed several times with 1×PBS before they were incubated with basal keratinocyte medium (GIBCO) custom made without hydrocortisone and thyroid hormone.
as §1, §2
as §3, with “Cortisol” for “A further experiment was performed where prior to measurement both the keratinocytes and the skin explant cultures were stimulated with 0.1 μM of ACTH. Cortisol”
as §4

β-catenin = test: Immunohistochemistry of phosphorylated β-catenin in chronic wound biopsies (diabetic foot ulcers); design: species or system human; details: topically applied to chronic wound biopsies
Experimental: Chronic wound tissue was obtained from discarded tissue of biopsies of consenting patients having surgical debridement using approved Columbia University protocol.
Slides were counterstained with hematoxylin. […] Sections were analyzed using a Carl Zeiss microscope. Digital images were taken with Adobe TWAIN—32 program.
It has been previously reported that β-catenin and c-myc participate in inhibition of wound healing and contribute to the impairment of healing in chronic wounds. […] To test if endogenous glucocorticoid participates in β-catenin activation in patients with chronic wounds, metyrapone was topically applied to chronic wound biopsies from patients with diabetic foot ulcers (as described in Example 1(A)). The effects were evaluated by measuring phosphorylation and intracellular translocation of β-catenin by immunohistochemistry as described in Example 1(B), except using an antibody targeting phosphorylated (activated) form of β-catenin (Cell Signaling Technology, Danvers, Mass.). […] As also shown in FIG. 12, this effect can be reversed by the addition of an exogenous glucocorticoid.

CYP11B1 = test: RT-PCR of CYP11B1 expression in treated keratinocytes; assay type: cell-based, human
Experimental: RNA isolation and purification was performed using Triazol (Invitrogen, Carlsbad, Calif.) extraction and subsequent Qiagen RNeasy Kit column purification (Qiagen, Alameda, Calif.). Reverse transcription and amplification were performed using primers CYP11B1 fw GCTAGACATAGGGGCTCC (SEQ ID no. 1), CYP11B1-rev AGGTGTTTCAGCACATGG (SEQ ID no. 2)and Access RT-PCR Kit (Promega, Madison, Wis.) as follows: (a) reverse transcription—1 cycle at 48° C. for 45 minutes; (b) AMV RT inactivation and RNA/cDNA primer denaturation—1 cycle at 94° C. for 2 minutes; (c) second strand cDNA synthesis and PCR amplification—35 cycles: denaturation for 30 seconds, annealing at 51° C. for 1 minute and extension at 68° C. for 2 minutes; and (d) final extension—1 cycle at 68° C. for 7 minutes. Samples were separated by electrophoresis on 2% agarose gels containing 0.5 μg/ml of ethidium bromide and visualized under UV light.
To elucidate the possible mechanism of regulation involved in these observations, the expression of CYP11B1 was measured using RT-PCR as described in Example 1(G). The expression levels of CYP11B1 corresponded to the cortisol production. IL-1 induced the expression of CYP11B1 similar to ACTH, whereas IGF-1 inhibited its expression (FIG. 8(B)).

Row | Compound | epithelialization / wound closure [1] | effect on cortisol production (in words) (skin explant cultures; skin explants) | effect on cortisol production (in words) [2] | induction of cortisol levels / cortisol production (skin explant cultures; skin explants) [fold] | induction of cortisol levels / cortisol production [2] [fold] | expression of CYP11B1 (RT-PCR) (CYP11B1) | other results
1 | [Ca+2].[Cl-].[Cl-] [CaCl2] |  |  |  |  |  |  | effect on cortisol production in the skin (skin explant cultures; increased CaCl2 levels): decrease
2 | CCC(=O)O[C@]1(C(=O)CCl)[C@@H](C)C[C@H]2[C@@H]3CCC4=CC(=O)C=C[C@]4(C)[C@@]3(F)[C@@H](O)C[C@@]21C [clobetasol propionate] | completely inhibited epithelialization |  |  |  |  |  | 
3 | CC(C)(C(=O)c1cccnc1)c1cccnc1 [metyrapone] | complete wound closure | decreased | decreased |  |  |  | hormone-activated GR in the nucleus (anti-phospho-Ser211 staining) (glucocorticoid receptor): absence of GR in the nucleus; protein levels of c-myc (Western Blot) (c-myc): blocked; β-catenin phosphorylation and nuclearization (β-catenin): abolished
4 | CC(=O)[C@H]1CC[C@H]2[C@@H]3CCC4=CC(=O)CC[C@]4(C)[C@H]3CC[C@]12C [progesterone] |  |  |  | 2.5 | 2.5 |  | 
5 | IGF-1: known to modulate glucocorticoid metabolism |  | inhibited | inhibited |  |  | inhibited | 
6 | adrenocorticotropic hormone (SYSMEHFRWGKPVGKKRRPVKVYPNGAEDESAEAFPLEF; Corticotropin; UniProt P01189 138-176, looked up) [ACTH, stimulates synthesis of glucocorticoid] |  |  |  | 2.0 | 2.7 | induced | induction of cortisol levels (skin explant cultures; skin explants, 0.1 μM of ACTH): 2.01 fold; induction of cortisol levels ([2]; keratinocytes in culture, 0.1mM of ACTH): 2.7 fold
